In BigSolDB 2.1:

O=C(O)Cc1ccccc1[N+](=O)[O-]
solubility (mole fraction)
Conditions	283.15 K	288.15 K	293.15 K	298.15 K	303.15 K	308.15 K	313.15 K	318.15 K	323.15 K	328.15 K
in 1,4-dioxane	–	0.0461	0.0535	0.0618	0.0732	0.0853	0.1	0.118	0.139	0.162
in DMF	0.18	0.202	0.222	0.249	0.277	0.308	0.338	0.371	0.406	0.445
in acetonitrile	0.0143	0.016	0.0184	0.0219	0.0255	0.0304	0.0365	0.0437	0.0515	0.0604
in cyclohexane	8.88e-06	1.22e-05	1.65e-05	2.23e-05	2.94e-05	3.79e-05	4.9e-05	6.35e-05	8.34e-05	0.000108
in ethanol	0.0273	0.0317	0.0367	0.0432	0.0516	0.0627	0.0743	0.0878	0.104	0.123
in ethyl acetate	0.0285	0.0323	0.0383	0.0453	0.055	0.0651	0.0764	0.0877	0.0979	0.11
in ethylene glycol	0.0148	0.0175	0.0208	0.0245	0.0287	0.0337	0.0399	0.0473	0.0561	0.0664
in isobutanol	0.00864	0.0106	0.0134	0.0169	0.0218	0.0271	0.033	0.0394	0.0465	0.0573
in isopropanol	0.0154	0.0182	0.0216	0.0253	0.0302	0.035	0.0414	0.0482	0.0564	0.0665
in methanol	0.0409	0.0455	0.0521	0.0584	0.0673	0.0769	0.0887	0.102	0.117	0.134
in n-butanol	0.0168	0.0198	0.0233	0.0271	0.0323	0.0382	0.0451	0.0533	0.0618	0.0742
in n-propanol	0.0181	0.0219	0.0263	0.0312	0.037	0.0441	0.0533	0.0637	0.0767	0.0934
in water	5.33e-05	7.8e-05	0.000105	0.000141	0.000185	0.000248	0.000321	0.000426	0.000554	0.000727
